In one assay the target is bovine cardiac myosin (Bos taurus, UniProt Q9BE39). Nature of the assay: Myosin inhibition assay (PK/LDH-coupled ATPase, bovine cardiac myofibrils). Type of assay: biochemical. The settings on record: calcium concentration giving 50% activation, pH 6.8, read-out: bcMF pCa_6 IC50. The protocol:
Small molecule agents were assessed for their ability to inhibit the enzymatic activity of bovine cardiac myosin using a biochemical assay that couples the release of ADP (adenosine diphosphate) from cardiac myosin to an enzymatic coupling system consisting of pyruvate kinase and lactate dehydrogenase (PK/LDH) and monitoring the absorbance decrease of NADH (at 340 nm) as a function of time. PK converts ADP to ATP (adenosine triphosphate) by converting PEP (phosphoenolpyruvate) to pyruvate. Pyruvate is then converted to lactate by LDH by converting NADH (nicotinamide adenine dinucleotide) to NAD (oxidized nicotinamide adenine dinucleotide). […] Prior to testing small molecule agents, the bovine myofibrils were assessed for their calcium responsiveness and the calcium concentration that achieves a 50% activation of the myofibril system was chosen as the final condition for assessing the inhibitory activity of the small molecule agents. All enzymatic activity was measured in a buffered solution containing 12 mM PIPES (piperazine-N,N′-bis(2-ethanesulfonic acid), 2 mM magnesium chloride at pH 6.8 (PM12 buffer). Final assay conditions were 1 mg/mL of bovine cardiac myofibrils, 0.4 mM PK/LDH, 50 uM ATP, 0.1 mg/mL BSA (bovine serum albumin), 10 ppm antifoam, 2 mM BME, 0.5 mM NADH, 1.5 mM PEP at the desired free calcium concentration required to achieve 50% activation of the myofibrils.
A dilution series of compound was created in DMSO such that the final desired concentration of compound would be achieved in a volume of 30 μL with a fixed DMSO concentration of 3.3% (v/v). Typically 1 μL of the dilution series were added to 384 well plate to achieve an 10 point dose response. Following the addition of 14 μL of a solution containing bovine cardiac myofibrils, PK/LDH and a solution of calcium (that achieved 50% activation), the enzymatic reaction was started with the addition of 15 μL of a solution containing ATP, PEP and NADH. The reaction progress was followed in a PerkinElmer Envision plate reader at ambient temperature using clear bottom plates. The plate reader was configured to read absorbance at 340 nm in kinetics mode for 15 minutes. Data were recorded as the slope of the absorbance response to time. The slopes of the absorbance response as a function of time were normalized to slopes on the plate containing DMSO. This normalized rate was then plotted as a function of small molecule concentration and the data was fitted to a four-parameter fit using EXCEL XLfit. The IC50 is the concentration at which fifty percent of the total response is inhibited.

Assay [1] relates to adult rat ventricular myocytes. Nature of the assay: Cardiomyocyte contractility assay (fractional shortening, IonOptix edge detection). The settings on record: 1 Hz pacing; for inhibition at 0.3 µM / inhibition at 1 µM / inhibition at 0.1 µM: Ventricular myocyte; for inhibition at 1 µM: 1.0 μM compound; for inhibition at 0.1 µM: 0.1 μM compound. Type of assay: cell-based. As for the experimental part: Contractility of adult rat ventricular myocytes is determined by edge detection with an IonOptix contractility system. Aliquots of myocytes in Tyrode buffer (137 mM NaCl, 3.7 mM KCL, 0.5 mM MgCl2, 1.5 mM CaCl2, 4 mM HEPES, 11 mM glucose) are placed in a perfusion chamber (Series 20 RC-27NE; Warner Instruments), allowed to adhere to the coverslip, and then perfused with 37° C. Tyrode buffer. Myocytes are filed stimulated at 1 Hz and 10V. Only myocytes with clear striations, quiescent prior to pacing, with a cell length of 120-180 microns, a basal fractional shortening equal to 3-8% of the cell length, and a contraction velocity greater than 100 microns per second are used for contractility experiments. To determine the response to compounds, myocytes are first perfused for 60 seconds with Tyrodes buffer followed by 5 minutes of compound and a 140 second washout with Tyrodes buffer. Data is continuously recorded using IonOptix software. Contractility data is analyzed using Ionwizard software (IonOptix). For each cell, 10-20 contractility transients were averaged and compared under basal (no compound) and compound-treated conditions. Compound activity is measured by effects on fractional shortening (FS), where fractional shortening is the ratio of the peak length of the cell at contraction divided by the basal cell length normalized to 100% for an untreated cell.

pIC50: −log10 of the molar value. A value given as a limit tells only on which side of the number the result lay.

Chain of bovine cardiac myosin (Q9BE39 whole entry): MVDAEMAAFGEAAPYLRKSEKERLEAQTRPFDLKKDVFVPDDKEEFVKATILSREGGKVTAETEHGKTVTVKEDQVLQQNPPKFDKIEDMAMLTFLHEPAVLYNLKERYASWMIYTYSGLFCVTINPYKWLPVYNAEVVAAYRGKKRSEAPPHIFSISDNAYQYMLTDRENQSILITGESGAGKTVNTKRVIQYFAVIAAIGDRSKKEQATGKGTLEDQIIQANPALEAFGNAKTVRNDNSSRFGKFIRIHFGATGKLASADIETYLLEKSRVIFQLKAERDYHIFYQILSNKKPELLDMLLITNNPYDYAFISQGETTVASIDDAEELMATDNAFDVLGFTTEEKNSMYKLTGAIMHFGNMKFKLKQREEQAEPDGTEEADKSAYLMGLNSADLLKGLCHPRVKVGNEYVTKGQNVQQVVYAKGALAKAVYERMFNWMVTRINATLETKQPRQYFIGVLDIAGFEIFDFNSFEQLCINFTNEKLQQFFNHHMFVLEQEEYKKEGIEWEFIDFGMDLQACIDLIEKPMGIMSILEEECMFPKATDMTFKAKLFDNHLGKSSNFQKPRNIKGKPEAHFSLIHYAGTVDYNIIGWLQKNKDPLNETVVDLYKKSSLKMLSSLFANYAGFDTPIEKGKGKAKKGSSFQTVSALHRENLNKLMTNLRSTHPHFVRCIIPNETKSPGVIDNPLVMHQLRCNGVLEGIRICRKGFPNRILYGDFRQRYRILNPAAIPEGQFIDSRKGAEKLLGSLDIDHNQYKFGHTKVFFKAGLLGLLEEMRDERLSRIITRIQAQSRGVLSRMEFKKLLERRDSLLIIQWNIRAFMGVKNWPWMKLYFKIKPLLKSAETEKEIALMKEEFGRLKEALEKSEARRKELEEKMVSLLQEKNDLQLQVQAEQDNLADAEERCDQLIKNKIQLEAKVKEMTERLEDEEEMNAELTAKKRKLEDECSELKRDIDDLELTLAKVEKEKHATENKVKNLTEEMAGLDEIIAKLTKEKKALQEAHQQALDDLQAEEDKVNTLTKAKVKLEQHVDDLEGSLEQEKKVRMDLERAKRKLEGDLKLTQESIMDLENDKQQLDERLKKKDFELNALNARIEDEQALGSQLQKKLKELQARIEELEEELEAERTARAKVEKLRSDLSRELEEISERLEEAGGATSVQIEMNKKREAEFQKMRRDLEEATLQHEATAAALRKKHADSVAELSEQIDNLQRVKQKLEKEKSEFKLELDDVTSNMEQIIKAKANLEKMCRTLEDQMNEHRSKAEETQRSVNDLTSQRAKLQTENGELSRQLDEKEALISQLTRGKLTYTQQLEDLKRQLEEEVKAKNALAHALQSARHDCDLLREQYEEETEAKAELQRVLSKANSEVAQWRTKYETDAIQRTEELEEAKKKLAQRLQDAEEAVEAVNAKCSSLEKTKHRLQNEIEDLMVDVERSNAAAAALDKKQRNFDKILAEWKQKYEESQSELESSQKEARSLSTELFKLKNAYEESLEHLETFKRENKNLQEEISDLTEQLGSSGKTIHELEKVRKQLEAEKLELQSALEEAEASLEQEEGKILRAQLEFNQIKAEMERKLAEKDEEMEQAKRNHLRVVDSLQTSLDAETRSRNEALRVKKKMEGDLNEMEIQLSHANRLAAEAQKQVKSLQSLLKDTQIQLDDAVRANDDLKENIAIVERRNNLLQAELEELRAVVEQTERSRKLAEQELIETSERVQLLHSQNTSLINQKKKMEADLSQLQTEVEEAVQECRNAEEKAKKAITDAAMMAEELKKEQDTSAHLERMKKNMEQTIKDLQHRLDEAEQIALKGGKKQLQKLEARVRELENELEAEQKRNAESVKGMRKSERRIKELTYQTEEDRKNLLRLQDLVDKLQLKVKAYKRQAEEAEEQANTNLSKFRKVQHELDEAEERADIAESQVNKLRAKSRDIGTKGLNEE
Chain of bovine cardiac myosin (P85100 whole entry partner): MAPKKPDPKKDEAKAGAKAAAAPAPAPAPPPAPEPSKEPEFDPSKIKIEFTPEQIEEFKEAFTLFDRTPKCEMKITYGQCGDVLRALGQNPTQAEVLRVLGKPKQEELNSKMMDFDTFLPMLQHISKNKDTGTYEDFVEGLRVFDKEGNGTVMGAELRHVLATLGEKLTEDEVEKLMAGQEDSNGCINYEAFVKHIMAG
Chain of bovine cardiac myosin (Q3SZE5 whole entry partner): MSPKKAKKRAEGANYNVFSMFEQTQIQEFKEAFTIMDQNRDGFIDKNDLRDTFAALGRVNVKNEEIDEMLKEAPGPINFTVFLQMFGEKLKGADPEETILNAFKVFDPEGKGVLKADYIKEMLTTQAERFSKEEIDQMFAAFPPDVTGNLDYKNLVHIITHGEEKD

Usually pIC50 stands for the IC50 on a negative log10 scale, so that one unit is a factor of ten. The term inhibition denotes the share of the control response that was lost under treatment. The low end stands for little suppression, the high end for strong suppression. On to `O=c1[nH]c2c(c(=O)n1-c1cc(F)cc(F)c1)CC[C@H](C1CCC(F)(F)CC1)N2` [Compound 2, (R)-7-(4,4-Difluorocyclohexyl)-3-(3,5-difluorophenyl)-5,6,7,8-tetrahydropyrido[2,3-d]pyrimidine-2,4(1H,3H)-dione], for which the pIC50 on bovine cardiac myosin is greater than 6.00. In addition, the inhibition at 0.3 µM in assay [1] (0.3 μM compound) is less than 33%. This compound also had an inhibition at 1 µM in assay [1] greater than 66%.
`CC(C)n1c(=O)[nH]c2c(c1=O)CC[C@](C)(c1ccccc1)N2` [Compound 106]: the pIC50 at bovine cardiac myosin was greater than 6.00. In addition, in assay [1], the inhibition at 0.1 µM was greater than 66%.
With “(R)-3-Isopropyl-7-phenyl-7,8-dihydropyrido[2,3-d]pyrimidine-2,4,5(1H,3H,6H)-trione [Compound 1]”, the negative logarithm of the IC50 (pIC50) at bovine cardiac myosin was 4.82 to 6.00. Moreover, the “Activity at 0.3 μM (fractional shortening inhibition)” value in assay [1] (0.3 μM compound) is on record as “++ (++ represents fractional shorting inhibition values from 33% to 66%)”.
Regarding `O=c1[nH]c2c(c(=O)n1C1CCC1)CC[C@H](C1CCC(F)(F)CC1)N2` [Compound 31], the negative logarithm of the IC50 (pIC50) on bovine cardiac myosin is greater than 6.00. In addition, the inhibition at 0.3 µM in assay [1] (0.3 μM compound) lay in the range of 33 to 66%.
Turning to `CC[C@@H](C)n1c(=O)[nH]c2c(c1=O)CC[C@H](c1ccc(F)c(F)c1)N2` [Compound 83], the pIC50 at bovine cardiac myosin was greater than 6.00. The compound further came in with an inhibition at 0.3 µM in assay [1] (0.3 μM compound) of 33 to 66%.
For the compound `CC(C)n1c(=O)[nH]c2c(c1=O)CC(F)(F)[C@H](c1ccccc1)N2` [Compound 116, (S)-6,6-Difluoro-3-isopropyl-7-phenyl-5,6,7,8-tetrahydropyrido[2,3-d]pyrimidine-2,4(1H,3H)-dione], the negative-log IC50 (pIC50) on bovine cardiac myosin is 4.82 to 6.00. In assay [1] (0.3 μM compound), this compound yielded an inhibition at 0.3 µM of 33 to 66%. In assay [1], this compound showed an inhibition at 1 µM greater than 66%.
With `CC(C)n1c(=O)[nH]c2c(c1=O)CC[C@H](c1ccc(F)cc1F)N2` [Compound 6, (R)-7-(2,4-Difluorophenyl)-3-isopropyl-5,6,7,8-tetrahydropyrido[2,3-d]pyrimidine-2,4(1H,3H)-dione], the pIC50 at bovine cardiac myosin is greater than 6.00. In assay [1] (0.3 μM compound), the inhibition at 0.3 µM was in the range of 33 to 66%. This compound also gave an inhibition at 1 µM in assay [1] greater than 66%.
Take `CC1(n2c(=O)[nH]c3c(c2=O)CC[C@H](c2ccc(F)c(F)c2)N3)CC1` [Compound 81]: the pIC50 at bovine cardiac myosin is 4.82 to 6.00. In assay [1], this compound yielded an inhibition at 1 µM of 33 to 66%.
In the case of `O=c1[nH]c2c(c(=O)n1CC(F)F)CC[C@H](c1ccc(F)c(F)c1)N2` [Compound 22], the pIC50 on bovine cardiac myosin was 4.82 to 6.00. Besides, in assay [1], the inhibition at 1 µM is 33 to 66%.
On to `CCn1c(=O)[nH]c2c(c1=O)CC[C@H](c1ccc(F)c(F)c1)N2` [Compound 9, (R)-7-(3,4-Difluorophenyl)-3-ethyl-5,6,7,8-tetrahydropyrido[2,3-d]pyrimidine-2,4(1H,3H)-dione], for which the pIC50 at bovine cardiac myosin was 4.82 to 6.00. In assay [1], the inhibition at 1 µM lay in the range of 33 to 66%.
Regarding `CCn1c(=O)[nH]c2c(c1=O)CC[C@H](C1CCC(F)(F)CC1)N2` [Compound 53], the pIC50 on bovine cardiac myosin was 4.82 to 6.00. This compound also showed an inhibition at 1 µM in assay [1] of 33 to 66%.
Turning to `CCn1c(=O)[nH]c2c(c1=O)CC[C@H](c1ccccc1F)N2` [Compound 14], on bovine cardiac myosin, the pIC50 is 4.82 to 6.00. This compound also had an inhibition at 0.3 µM in assay [1] (0.3 μM compound) of less than 33%. For the same compound, the inhibition at 1 µM in assay [1] is greater than 66%.
As for `CC(C)n1c(=O)[nH]c2c(c1=O)CC[C@H](c1cccc(F)c1)N2` [Compound 68, (R)-7-(3-Fluorophenyl)-3-isopropyl-5,6,7,8-tetrahydropyrido[2,3-d]pyrimidine-2,4(1H,3/H)-dione], on bovine cardiac myosin, the negative logarithm of the IC50 (pIC50) is 4.82 to 6.00. In assay [1], this compound displayed an inhibition at 0.1 µM greater than 66%.
For the compound `CC[C@H](C)n1c(=O)[nH]c2c(c1=O)CC[C@H](c1ccc(F)c(F)c1)N2` [Compound 18], the pIC50 at bovine cardiac myosin is 4.82 to 6.00. Also, the inhibition at 0.3 µM in assay [1] (0.3 μM compound) was 33 to 66%.
`CC(C)n1c(=O)[nH]c2c(c1=O)CC[C@H](c1ccc(F)cc1)N2` [Compound 67]: the pIC50 on bovine cardiac myosin was 4.82 to 6.00. In addition, the inhibition at 0.3 µM in assay [1] (0.3 μM compound) lay within 33 to 66%.
Consider `CC(C)n1c(=O)[nH]c2c(c1=O)CC[C@H](c1ccccc1F)N2` [Compound 69, (R)-7-(2-Fluorophenyl)-3-isopropyl-5,6,7,8-tetrahydropyrido[2,3-d]pyrimidine-2,4(1H,3H)-dione], for which the pIC50 at bovine cardiac myosin is 4.82 to 6.00. In assay [1], this compound returned an inhibition at 0.1 µM greater than 66%.
For `CC(C)n1c(=O)[nH]c2c(c1=O)CC[C@H](C1CCC(F)(F)CC1)N2` [Compound 46], the pIC50 on bovine cardiac myosin is greater than 6.00. For the same compound, the inhibition at 1 µM in assay [1] was greater than 66%.
Take `CC(C)n1c(=O)[nH]c2c(c1=O)CC[C@H](c1ccc(F)c(F)c1)N2` [Compound 4, (7R)-7-(3,4-difluorophenyl)-3-isopropyl-5,6,7,8-tetrahydropyrido[2,3-d]pyrimidine-2,4(1H,3H)-dione]: the pIC50 on bovine cardiac myosin was 4.82 to 6.00. In assay [1], this compound registered an inhibition at 0.1 µM of less than 33%. The inhibition at 0.3 µM in assay [1] (0.3 μM compound) is 33 to 66%.
As for `O=c1[nH]c2c(c(=O)n1-c1ccccc1)CC[C@H](c1ccc(F)c(F)c1)N2` [Compound 48], the pIC50 at bovine cardiac myosin is 4.82 to 6.00. The compound also gave an inhibition at 0.3 µM in assay [1] (0.3 μM compound) of less than 33%. In assay [1], this compound returned an inhibition at 1 µM of less than 33%.
Take `O=c1[nH]c2c(c(=O)n1-c1cc(F)cc(F)c1)CC[C@H](c1cccc(F)c1)N2` [Compound 60]: the pIC50 at bovine cardiac myosin is 4.82 to 6.00.
Turning to `CCn1c(=O)[nH]c2c(c1=O)CC[C@H](c1ccc(F)cc1)N2` [Compound 20], the pIC50 on bovine cardiac myosin is 4.82 to 6.00. The compound also gave an inhibition at 1 µM in assay [1] of 33 to 66%.
For the compound `CC(C)n1c(=O)[nH]c2c(c1=O)CC(F)(F)[C@@H](c1ccccc1)N2` [Compound 117, (R)-6,6-Difluoro-3-isopropyl-7-phenyl-5,6,7,8-tetrahydropyrido[2,3-d]pyrimidine-2,4(1H,3H)-dione], the pIC50 on bovine cardiac myosin was less than 4.82.
`CC(C)n1c(=O)[nH]c2c(c1=O)CC(F)(F)[C@](C)(c1ccccc1)N2` [Compound 140]: on bovine cardiac myosin, the pIC50 is 4.82 to 6.00.
`O=c1[nH]c2c(c(=O)n1CC(F)(F)F)CC[C@H](c1ccc(F)c(F)c1)N2` [Compound 70]: on bovine cardiac myosin, the pIC50 was 4.82 to 6.00. This compound also yielded an inhibition at 1 µM in assay [1] of 33 to 66%.
`CCn1c(=O)[nH]c2c(c1=O)CC[C@](C)(c1cc(F)ccc1F)N2` [Compound 119]: at bovine cardiac myosin, the pIC50 was 4.82 to 6.00.
The same measure, in the same setting: in the case of `C[C@]1(c2cccc(F)c2)CCc2c([nH]c(=O)n(-c3ccccc3)c2=O)N1` [Compound 127] it was greater than 6.00.

The values are drawn from patent US9663516B2, “Bicyclic-pyrimidinedione compounds” (MyoKardia, Inc., priority 2014, dated 2017).
